Active and inactive are the calls of the source. How the calls were made is not given here.
System: rodent carcinogenicity bioassays, tumor incidence
Test: CCRIS carcinogenicity studies
Summary of the method: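 NCI-built, expert-reviewed records of carcinogenicity and related test outcomes (mutagenicity, tumor promotion/inhibition) compiled from published and report sources, historical span 1985-2011, not updated.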

SMILES	carcinogen call (Species: GUINEA PIG, Strain/Sex: STRAIN-13/MALE, Route: SUBCUTANEOUS, Dose: 70 MG/KG/WK FOR 2 WK FOLLOWED BY 1 WK NO TREATMENT THEN 20 MG/KG/WK FOR 2 WK, Tumor Site: Type of Lesion: LIVER: CHOLANGIOMA, CHOLANGIOCARCINOMA)	carcinogen call (Species: HAMSTER, Strain/Sex: SYRIAN/FEMALE, Route: SUBCUTANEOUS, Dose: 2.5, 5, 10 MG/KG, Dose: 2.5, 5, 10 MG/KG, Tumor Site: Type of Lesion: PANCREAS: DUCTAL ADENOMA, INTRADUCTAL CARCINOMA, ADENOCARCINOMA, LUNG: ADENOMA, ADENOCARCINOMA, SQUAMOUS CELL CARCINOMA;, Tumor Site: Type of Lesion: PANCREAS: DUCTAL ADENOMA, INTRADUCTAL CARCINOMA, ADENOCARCINOMA, LUNG: ADENOMA, ADENOCARCINOMA, SQUAMOUS CELL CARCINOMA)	carcinogen call (Species: HAMSTER, Strain/Sex: SYRIAN/MALE,FEMALE, Route: ORAL, Dose: 0.35, 0.7, 1.4% IN DRINKING WATER, Dose: 0.35, 0.7, 1.4% IN DRINKING WATER, Tumor Site: Type of Lesion: LIVER: CHOLANGIOMA, INTRADUCTAL CARCINOMA, CHOLANGIOCARCINOMA, GALL BLADDER: POLYP, COMMON BILE DUCT: POLYP, COMMON DUCT, Tumor Site: Type of Lesion: LIVER: CHOLANGIOMA, INTRADUCTAL CARCINOMA, CHOLANGIOCARCINOMA, GALL BLADDER: POLYP, COMMON BILE DUCT: POLYP, COMMON DUCT)	carcinogen call (Species: HAMSTER, Strain/Sex: SYRIAN/MALE, Route: SUBCUTANEOUS, Dose: 2.5, 5, 10 MG/KG, Dose: 2.5, 5, 10 MG/KG, Tumor Site: Type of Lesion: PANCREAS: DUCTAL ADENOMA, INTRADUCTAL CARCINOMA, ADENOCARCINOMA, LUNG: ADENOMA, ADENOCARCINOMA, GALL BLADDER: PAPILLARY, Tumor Site: Type of Lesion: PANCREAS: DUCTAL ADENOMA, INTRADUCTAL CARCINOMA, ADENOCARCINOMA, LUNG: ADENOMA, ADENOCARCINOMA, GALL BLADDER: PAPILLARY)	carcinogen call (Species: MOUSE, Strain/Sex: ICR/FEMALE, Route: SUBCUTANEOUS, Dose: 0, 10, 20, 40 MG/KG BW IN 1% GELATIN SOLUTION ON DAYS 1, 8, 15 AND 22 OF AGE (STUDY DURATION: 1 YR), Dose: 0, 10, 20, 40 MG/KG BW IN 1% GELATIN SOLUTION ON DAYS 1, 8, 15 AND 22 OF AGE (STUDY DURATION: 1 YR), Tumor Site: Type of Lesion: NASAL CAVITY: TUMOR, LUNG: TUMOR, LIVER: TUMOR, Tumor Site: Type of Lesion: NASAL CAVITY: TUMOR, LUNG: TUMOR, LIVER: TUMOR)	carcinogen call (Species: MOUSE, Strain/Sex: ICR/MALE, Route: SUBCUTANEOUS, Dose: 0, 10, 20, 40 MG/KG BW IN 1% GELATIN SOLUTION ON DAYS 1, 8, 15 AND 22 OF AGE (STUDY DURATION: 1 YR), Dose: 0, 10, 20, 40 MG/KG BW IN 1% GELATIN SOLUTION ON DAYS 1, 8, 15 AND 22 OF AGE (STUDY DURATION: 1 YR), Tumor Site: Type of Lesion: NASAL CAVITY: TUMOR, LUNG: TUMOR, LIVER: TUMOR, Tumor Site: Type of Lesion: NASAL CAVITY: TUMOR, LUNG: TUMOR, LIVER: TUMOR)	carcinogen call (Species: RAT, Strain/Sex: CD-1/FEMALE, Route: SUBCUTANEOUS, Dose: 0, 5.35, 10.7, 21.4 MG/KG 1/WK FOR LIFE (STUDY DURATION: LIFE), Dose: 0, 5.35, 10.7, 21.4 MG/KG 1/WK FOR LIFE (STUDY DURATION: LIFE), Tumor Site: Type of Lesion: NASAL CAVITY: TUMOR)	carcinogen call (Species: RAT, Strain/Sex: CD-1/MALE, Route: SUBCUTANEOUS, Dose: 0, 6.15, 12.3, 24.6 MG/KG 1/WK FOR LIFE (STUDY DURATION: LIFE), Dose: 0, 6.15, 12.3, 24.6 MG/KG 1/WK FOR LIFE (STUDY DURATION: LIFE), Tumor Site: Type of Lesion: NASAL CAVITY: TUMOR)	carcinogen call (Species: RAT, Strain/Sex: F344/FEMALE, Route: INTRAVESICULAR, Dose: 0, 0.8 MG IN 0.2 ML ETHANOL: DEIONIZED WATER (1:3) 2/WK FOR 30 WK (TOTAL DOSE 0.3 MMOL) (STUDY DURATION: LIFESPAN), Tumor Site: Type of Lesion: BLADDER: TRANSITIONAL CELL CARCINOMA, TRANSITIONAL CELL PAPILLOMA, LUNG: TUMOR, KIDNEY: MESENCHYMAL NEOPLASM, LIVER: TUM, Tumor Site: Type of Lesion: BLADDER: TRANSITIONAL CELL CARCINOMA, TRANSITIONAL CELL PAPILLOMA, LUNG: TUMOR, KIDNEY: MESENCHYMAL NEOPLASM, LIVER: TUM)	carcinogen call (Species: RAT, Strain/Sex: F344/FEMALE, Route: ORAL, Dose: 0, 55 MG/L DRINKING WATER 5 D/WK FOR 50 WK (TOTAL DOSE 275 MG) (STUDY DURATION: LIFESPAN), Tumor Site: Type of Lesion: LIVER: CARCINOMA, ANGIOSARCOMA, LUNG: TUMOR)	carcinogen call (Species: RAT, Strain/Sex: F344/FEMALE, Route: SUBCUTANEOUS, Dose: 0, 10 MG/KG/BW 2/WK FOR A TOTAL OF 11 DOSES BEGINNING AT 2 D OF AGE (STUDY DURATION: 26 WK), Tumor Site: Type of Lesion: LIVER: HEPATOCELLULAR CARCINOMA, KIDNEY: NEPHROBLASTOMA)	carcinogen call (Species: RAT, Strain/Sex: F344/MALE, Route: SUBCUTANEOUS, Dose: 0, 10 MG/KG/BW 2/WK FOR A TOTAL OF 11 DOSES BEGINNING AT 2 D OF AGE (STUDY DURATION: 26 WK), Tumor Site: Type of Lesion: LIVER: HEPATOCELLULAR CARCINOMA, KIDNEY: NEPHROBLASTOMA, TESTIS: GONADAL STROMAL TUMOR, Tumor Site: Type of Lesion: LIVER: HEPATOCELLULAR CARCINOMA, KIDNEY: NEPHROBLASTOMA, TESTIS: GONADAL STROMAL TUMOR)	carcinogen call (Species: RAT, Strain/Sex: MRC/MALE,FEMALE, Route: SUBCUTANEOUS, Dose: 2.5, 5, 10 MG/KG, Dose: 2.5, 5, 10 MG/KG, Tumor Site: Type of Lesion: THYROID GLAND: FOLLICULAR ADENOMA, CARCINOMA)	carcinogen call (Species: RAT, Strain/Sex: SPRAGUE-DAWLEY/FEMALE, Route: SUBCUTANEOUS, Dose: 0, 5.35, 10.7, 21.4 MG/KG BW IN 0.9% SALINE 1/WK FOR DURATION OF STUDY (STUDY DURATION: 96 WK), Dose: 0, 5.35, 10.7, 21.4 MG/KG BW IN 0.9% SALINE 1/WK FOR DURATION OF STUDY (STUDY DURATION: 96 WK), Tumor Site: Type of Lesion: KIDNEY (RENAL PELVIS): TUMOR, URETER: TUMOR, URINARY BLADDER: TUMOR, Tumor Site: Type of Lesion: KIDNEY (RENAL PELVIS): TUMOR, URETER: TUMOR, URINARY BLADDER: TUMOR)	carcinogen call (Species: RAT, Strain/Sex: SPRAGUE-DAWLEY/MALE, Route: SUBCUTANEOUS, Dose: 0, 6.15, 12.3, 24.6 MG/KG BW IN 0.9% SALINE 1/WK FOR DURATION OF STUDY (STUDY DURATION: 96 WK), Dose: 0, 6.15, 12.3, 24.6 MG/KG BW IN 0.9% SALINE 1/WK FOR DURATION OF STUDY (STUDY DURATION: 96 WK), Tumor Site: Type of Lesion: KIDNEY (RENAL PELVIS): TUMOR, URINARY BLADDER: TUMOR)	carcinogen call (Species: MOUSE, Strain/Sex: B3C3F1/FEMALE (50), Route: ORAL, Dose: 0, 500, 1000, 2000 PPM IN MICROCAPSULES IN THE DIET FOR 2 YR (STUDY DURATION: 2 YR), Dose: 0, 500, 1000, 2000 PPM IN MICROCAPSULES IN THE DIET FOR 2 YR (STUDY DURATION: 2 YR), Tumor Site: Type of Lesion: LYMPHATIC SYSTEM: MALIGNANT LYMPHOMA)	carcinogen call (Species: MOUSE, Strain/Sex: B6C3F1/MALE (50), Route: ORAL, Dose: 0, 500, 1000, 2000 PPM IN MICROCAPSULES IN THE DIET FOR 2 YR (STUDY DURATION: 2 YR), Dose: 0, 500, 1000, 2000 PPM IN MICROCAPSULES IN THE DIET FOR 2 YR (STUDY DURATION: 2 YR))	carcinogen call (Species: RAT, Strain/Sex: F344/FEMALE, Route: ORAL, Dose: 0, 1000, 2000, 4000 PPM IN MICROCAPSULES IN THE DIET FOR 2 YR (STUDY DURATION: 2 YR), Dose: 0, 1000, 2000, 4000 PPM IN MICROCAPSULES IN THE DIET FOR 2 YR (STUDY DURATION: 2 YR))	carcinogen call (Species: RAT, Strain/Sex: F344/MALE, Route: ORAL, Dose: 0, 1000, 2000, 4000 PPM IN MICROCAPSULES IN THE DIET FOR 2 YR (STUDY DURATION: 2 YR), Dose: 0, 1000, 2000, 4000 PPM IN MICROCAPSULES IN THE DIET FOR 2 YR (STUDY DURATION: 2 YR))
CC(=O)CN(CC(C)=O)N=O	active; positive	active; positive	active; positive	active; positive	active; positive	active; positive	active; positive	active; positive	active; positive	active; positive	active; positive	active; positive	active; positive	active; positive	active; positive	–	–	–	–
CC(C)=CCC/C(C)=C/C=O	–	–	–	–	–	–	–	–	–	–	–	–	–	–	–	equivocal	inactive; negative	inactive; negative	inactive; negative

Reference: PubChem BioAssay AID1259411 (Chemical Carcinogenesis Research Information System (CCRIS), 2018)
